Where “and” joins values, the source holds several entries; their conditions need not be identical. Equal values may be shown once.
Columns and labels:
[1] = test system: selected crops and weeds; assay: Post emergent treatment of a range of selected crops and weeds (FIGS. 1-13), measured and visual observation; format: in vivo
Source text: (§1) The original objective of this Example was to evaluate the herbicidal effect of ipfencarbazone when applied as a post emergent treatment to a range of selected crops and weeds. Unexpectedly, crop plant growth stimulation was observed. The actual species of weeds and crops are listed in the summary data tabulated below and in FIGS. 1-13. By convention each plant species has a Bayer code (5-letter name) with the scientific name for the plant referenced in FIGS. 1-13. In each Figure, each tray contains the same configuration of weeds and/or crops. In each Figure there is one replication of each treatment (six treatments in total). The top three photographs in each Figure show the Bayer Codes and bottom three photographs are aligned with the top three facilitating viewing of the same plant species. Throughout the Examples various abbreviations as conventional shorthand notation and will be appreciated by those skilled in the art. Some exemplary abbreviations include, “CV”=Co-efficient of Variation,” “LSD”=Least Significant Difference” (G/L (gram per L) AND GA/L (gram of active ingredient per L); “SC”=suspension concentrate formulation. The diluent in all treatments was water. By convention factors that are identical in all treatments (e.g. diluent and surfactant) are not listed in each treatment.
(§2) Methods: The indicated size pots (see Tables below) are filled with a specific soil, the soil properties being indicated below. The referenced crops and weeds are planted by hand in each pot. […] The experiments include six treatments each replicated three times on each crop/weed species. At a specific time after emergence each crop and weed species was treated with ipfencarbazone plus a non-ionic surfactant (NIS). In the present Example, the surfactant employed was ENERGIC™ (non-ionic surfactant). The application timing is indicated in each of the Tables (1 or 2 leaf stage) below. Ipfencarbazone plus surfactant was diluted in water and applied at a rate equivalent to about 250 L/ha. Ipfencarbazone was applied using a track sprayer. After treatment, the pots were randomized in a greenhouse. At each assessment (indicated by “days after treatment” or DAT) the height of each plant was measured. The letters next to each mean indicate the level of statistical significance.

[2] = test system: TRZAX Triticum aestivum (Soft wheat); assay: Ipfencarbazone biostimulant effect, early post emergence foliar application, greenhouse pots, plant height: wheat; format: in vivo
Source text: as §1, §2
Replications: 3, Untreated treatments: 1, Design: Randomized Complete Block (RCB), Treatment units: Treated ‘Plot’ experimental unit size, Dry Form. Unit: %, Treated ‘Plot’ experimental unit size Width: 1 meter, Treated ‘Plot’ experimental unit size Length: 1.4 meters, Application volume: 250 L/ha, Mix size: 0.15 liters, […]

[3] = Soft wheat BRS327, 15 DA-A, 62.5 g ai/ha + Energic NIS 0.2 % v/v
[4] = Soft wheat BRS327, 15 DA-A, 250 g ai/ha + Energic NIS 0.2 % v/v
[5] = Soft wheat BRS327, 15 DA-A, 1000 g ai/ha + Energic NIS 0.2 % v/v
[6] = Soft wheat BRS327, 28 DA-A, 62.5 g ai/ha + Energic NIS 0.2 % v/v
[7] = Soft wheat BRS327, 28 DA-A, 125 g ai/ha + Energic NIS 0.2 % v/v
[8] = Soft wheat BRS327, 28 DA-A, 250 g ai/ha + Energic NIS 0.2 % v/v
[9] = Soft wheat Iguaçú, 15 DA-A, 62.5 g ai/ha + Energic NIS 0.2 % v/v
[10] = Soft wheat Iguaçú, 15 DA-A, 250 g ai/ha + Energic NIS 0.2 % v/v
[11] = Soft wheat Iguaçú, 15 DA-A, 500 g ai/ha + Energic NIS 0.2 % v/v
[12] = Soft wheat Iguaçú, 15 DA-A, 1000 g ai/ha + Energic NIS 0.2 % v/v
[13] = Soft wheat Iguaçú, 28 DA-A, 62.5 g ai/ha + Energic NIS 0.2 % v/v
[14] = Soft wheat Iguaçú, 28 DA-A, 125 g ai/ha + Energic NIS 0.2 % v/v
[15] = Soft wheat Iguaçú, 28 DA-A, 250 g ai/ha + Energic NIS 0.2 % v/v
[16] = Soft wheat Iguaçú, 28 DA-A, 500 g ai/ha + Energic NIS 0.2 % v/v
[17] = Soft wheat Itaipú, 15 DA-A, 125 g ai/ha + Energic NIS 0.2 % v/v
[18] = Soft wheat Itaipú, 15 DA-A, 250 g ai/ha + Energic NIS 0.2 % v/v
[19] = Soft wheat Itaipú, 15 DA-A, 1000 g ai/ha + Energic NIS 0.2 % v/v
[20] = Soft wheat Itaipú, 28 DA-A, 125 g ai/ha + Energic NIS 0.2 % v/v
[21] = Soft wheat Itaipú, 28 DA-A, 250 g ai/ha + Energic NIS 0.2 % v/v
[22] = TRZAX BRS327, 62.5 g ai/ha, 15 DA-A

## CC(C)N(C(=O)n1cnn(-c2ccc(Cl)cc2Cl)c1=O)c1ccc(F)cc1F [ARY-0572-001, ipfencarbazone]
[1]; about 60 to about 125 grams per hectare, corn, wheat, soybean and dry bean seedlings
  effect on crop plant seedlings (growth): positive effect
[1]; applied post emergent, all crop and weed species evaluated, all use rates
  impact on plant growth: significant, positive impact on plant growth
[1]; early post treatment, wheat, sorghum, corn, soybean, dry bean and cotton
  growth rate (biomass, leaf area, plant height): meaningful increase in growth rate
[1]; higher rates, 500 and 1000 g a.i./ha, specific crops and weeds
  herbicidal effect: some herbicidal effect
[1]; treated plants compared to the untreated control
  plant color (visual observation): significant greening effect
[2]; [3]
  Plant HEIGHT, Mean: 27.2 cm
  Plant HEIGHT, single plots: 25.0 cm and 30.8 cm and 25.7 cm
[2]; Soft wheat BRS327, 15 DA-A, 125 g ai/ha + Energic NIS 0.2 % v/v
  Plant HEIGHT, Mean: 27.6 cm
[2]; [4]
  Plant HEIGHT, Mean: 32.0 cm
  Plant HEIGHT, single plots: 31.0 cm and 32.3 cm and 32.7 cm
[2]; Soft wheat BRS327, 15 DA-A, 500 g ai/ha + Energic NIS 0.2 % v/v
  Plant HEIGHT, Mean: 24.4 cm
[2]; [5]
  Plant HEIGHT, Mean: 17.3 cm
  Plant HEIGHT, single plots: 23.3 cm and 11.7 cm and 17.0 cm
[2]; [6]
  Plant HEIGHT, Mean: 33.0 cm
  Plant HEIGHT, single plots: 27.7 cm and 43.3 cm and 28.0 cm
[2]; [7]
  Plant HEIGHT, Mean: 35.0 cm
  Plant HEIGHT, single plots: 49.0 cm and 24.7 cm and 31.3 cm
[2]; [8]
  Plant HEIGHT, Mean: 45.6 cm
  Plant HEIGHT, single plots: 45.7 cm and 46.0 cm and 45.0 cm
[2]; Soft wheat BRS327, 28 DA-A, 500 g ai/ha + Energic NIS 0.2 % v/v
  Plant HEIGHT, Mean: 31.6 cm
[2]; Soft wheat BRS327, 28 DA-A, 1000 g ai/ha + Energic NIS 0.2 % v/v
  Plant HEIGHT, Mean: 28.2 cm
[2]; [9]
  Plant HEIGHT, Mean: 24.6 cm
  Plant HEIGHT, single plots: 20.2 cm and 28.0 cm and 25.7 cm
[2]; Soft wheat Iguaçú, 15 DA-A, 125 g ai/ha + Energic NIS 0.2 % v/v
  Plant HEIGHT, Mean: 26.1 cm
[2]; [10]
  Plant HEIGHT, Mean: 29.9 cm
  Plant HEIGHT, single plots: 28.3 cm and 30.7 cm and 30.8 cm
[2]; [11]
  Plant HEIGHT, Mean: 23.8 cm
  Plant HEIGHT, single plots: 30.3 cm and 18.7 cm and 22.3 cm
[2]; [12]
  Plant HEIGHT, Mean: 16.3 cm
  Plant HEIGHT, single plots: 22.3 cm and 14.0 cm and 12.7 cm
[2]; [13]
  Plant HEIGHT, Mean: 29.2 cm
  Plant HEIGHT, single plots: 24.0 cm and 36.3 cm and 27.3 cm
[2]; [14]
  Plant HEIGHT, Mean: 30.1 cm
  Plant HEIGHT, single plots: 39.7 cm and 20.7 cm and 30.0 cm
[2]; [15]
  Plant HEIGHT, Mean: 43.3 cm
  Plant HEIGHT, single plots: 39.7 cm and 50.3 cm and 40.0 cm
[2]; [16]
  Plant HEIGHT, Mean: 36.8 cm
  Plant HEIGHT, single plots: 47.0 cm and 27.7 cm and 35.7 cm
[2]; Soft wheat Iguaçú, 28 DA-A, 1000 g ai/ha + Energic NIS 0.2 % v/v
  Plant HEIGHT, Mean: 18.7 cm
[2]; Soft wheat Itaipú, 15 DA-A, 62.5 g ai/ha + Energic NIS 0.2 % v/v
  Plant HEIGHT, Mean: 23.8 cm
[2]; [17]
  Plant HEIGHT, Mean: 25.5 cm
  Plant HEIGHT, single plots: 33.3 cm and 19.8 cm and 23.3 cm
[2]; [18]
  Plant HEIGHT, Mean: 31.4 cm
  Plant HEIGHT, single plots: 30.7 cm and 31.3 cm and 32.3 cm
[2]; Soft wheat Itaipú, 15 DA-A, 500 g ai/ha + Energic NIS 0.2 % v/v
  Plant HEIGHT, Mean: 22.2 cm
[2]; [19]
  Plant HEIGHT, Mean: 15.7 cm
  Plant HEIGHT, single plots: 22.0 cm and 13.0 cm and 12.0 cm
[2]; Soft wheat Itaipú, 28 DA-A, 62.5 g ai/ha + Energic NIS 0.2 % v/v
  Plant HEIGHT, Mean: 37.1 cm
[2]; [20]
  Plant HEIGHT, Mean: 32.3 cm
  Plant HEIGHT, single plots: 45.0 cm and 23.3 cm and 28.7 cm
[2]; [21]
  Plant HEIGHT, Mean: 47.8 cm
  Plant HEIGHT, single plots: 45.0 cm and 46.7 cm and 51.7 cm
[2]; Soft wheat Itaipú, 28 DA-A, 500 g ai/ha + Energic NIS 0.2 % v/v
  Plant HEIGHT, Mean: 24.0 cm
[2]; Soft wheat Itaipú, 28 DA-A, 1000 g ai/ha + Energic NIS 0.2 % v/v
  Plant HEIGHT, Mean: 18.4 cm
[2]; [22]
  HEIGHT, percent of untreated check (APoC): (145.5%)
  HEIGHT, treatment mean: 27.2a cm
[2]; TRZAX BRS327, 62.5 g ai/ha, 28 DA-A
  HEIGHT, percent of untreated check (APoC): (147.8%)
